The target of this assay is T1, Human complement C1s enzyme (Homo sapiens, UniProt P09871).
T1 construct: purified from human serum, Complement Technology, Inc; purchased Complement Technology, Inc; host or cells: human serum (plasma-derived native protein)
T1 sequence (P09871 438-688 limits assumed): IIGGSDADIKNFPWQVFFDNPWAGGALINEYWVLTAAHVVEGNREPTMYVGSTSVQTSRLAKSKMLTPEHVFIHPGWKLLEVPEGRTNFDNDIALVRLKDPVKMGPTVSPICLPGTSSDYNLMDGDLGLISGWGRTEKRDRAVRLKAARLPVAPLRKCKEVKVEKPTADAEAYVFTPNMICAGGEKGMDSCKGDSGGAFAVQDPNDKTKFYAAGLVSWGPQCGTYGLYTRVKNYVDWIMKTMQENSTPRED
T1 sequence (P09871 16-437 partner limits assumed): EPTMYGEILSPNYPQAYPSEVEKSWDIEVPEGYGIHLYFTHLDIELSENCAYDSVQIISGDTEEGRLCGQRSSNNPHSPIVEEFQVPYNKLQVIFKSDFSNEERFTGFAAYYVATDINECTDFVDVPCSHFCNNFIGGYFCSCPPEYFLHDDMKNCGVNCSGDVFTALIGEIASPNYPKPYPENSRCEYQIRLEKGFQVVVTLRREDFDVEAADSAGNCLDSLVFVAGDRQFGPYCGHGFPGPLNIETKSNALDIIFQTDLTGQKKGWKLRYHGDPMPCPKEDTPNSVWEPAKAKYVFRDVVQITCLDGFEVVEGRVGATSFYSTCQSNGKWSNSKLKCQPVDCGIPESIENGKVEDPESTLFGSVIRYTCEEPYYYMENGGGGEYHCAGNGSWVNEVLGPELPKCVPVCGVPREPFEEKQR
The assay is described as follows: Human C1s enzyme assay. The class given is biochemical. The following applies: human complement C1s enzyme 1.16 nM, substrate Z-L-Lys-SBzl, A405; read-out: IC50 (Stars). How it is done: The […] values of the compounds of Table 1 were determined with the human C1s enzyme assay described below. Other standard complement assays are also available.
Human complement C1s enzyme (purified from human serum, Complement Technology, Inc.) at 1.16 nM final concentration was incubated with test compound at various concentrations for 5 min at room temperature in 50 mM Tris, 1 M NaCl, pH 7.5. A synthetic substrate Z-L-Lys-SBzl and DTNB (Ellman's reagent) were added to final concentrations of 100 μM each. Absorbance at 405 nm (A405) was recorded at 30 second intervals for […] using a microplate spectrophotometer. IC values were calculated by nonlinear regression of complement C1s reaction rates as a function of test compound concentration.
[…]; ND indicates a compound for which the IC50 value is not determined.

As usually defined, the IC50 is the point on the concentration scale where inhibition reaches its midpoint.

Molecules are shown by their SMILES.

Regarding `O=C(Cn1c(-c2ccccc2)ncc(NCc2ccc(Oc3ccccc3)cc2)c1=O)NCc1cc2cnccc2[nH]1` [Compound 20, N-((1H-pyrrolo[3,2-c]pyridin-2-yl)methyl)-2-(6-oxo-5-((4-phenoxybenzyl)amino)-2-phenylpyrimidin-1(6H)-yl)-acetamide], the IC50 is < 100 nM.
For `O=C(Cn1c(-c2ccccc2)ncc(NCCCCc2ccc(Oc3ccccc3)cc2)c1=O)NCc1cc2cnccc2[nH]1` [Compound 21, N-((1H-pyrrolo[3,2-c]pyridin-2-yl)methyl)-2-(6-oxo-5-((4-(4-phenoxyphenyl)butyl)amino)-2-phenylpyrimidin-1(6H)-yl)acetamide], the IC50 was < 100 nM.
`O=C(Cn1c(-c2ccccc2)ncc(NCc2ccc3c(c2)-c2ccccc2C3(F)F)c1=O)NCc1cc2cnccc2[nH]1` [Compound 22, N-((1H-pyrrolo[3,2-c]pyridin-2-yl)methyl)-2-(5-(((9,9-difluoro-9H-fluoren-3-yl)meth-yl)amino)-6-oxo-2-phenyl-pyrimidin-1(6H)-yl)acetamide]: the IC50 is < 100 nM.
For `O=C(Cn1c(-c2ccccc2)ncc(NC(=O)CCC(=O)c2ccc(Oc3ccccc3)cc2)c1=O)NCc1cc2cnccc2[nH]1` [Compound 23, N-(1-(2-(((1H-pyrrolo[3,2-c]pyridin-2-yl)methyl)amino)-2-oxoethyl)-6-oxo-2-phenyl-1,6-dihydropyrimidin-5-yl)-4-oxo-4-(4-phenoxyphenyl)butanamide] the value was < 100 nM.
To `O=C(Cn1c(-c2ccccc2)ncc(NC(=O)Cc2ccccc2)c1=O)NCc1cc2cnccc2[nH]1` [Compound 24, N-((1H-pyrrolo[3,2-c]pyridin-2-yl)methyl)-2-(6-oxo-2-phen-yl-5-(2-phenylacetamido)pyr-imidin-1(6H)-yl)acetamide] belongs < 100 nM.
Regarding `O=C(Cn1c(-c2ccccc2)ncc(-c2ccccc2)c1=O)NCc1cc2cnccc2[nH]1` [Compound 25, N-((1H-pyrrolo[3,2-c]pyridin-2-yl)methyl)-2-(6-oxo-2,5-diphenylpyrimidin-1(6H)-yl)acetamide], the IC50 is > 1000 nM.
Consider `O=C(Cn1c(-c2ccccc2)ncc(NCc2ccc3c(c2)oc2ccccc23)c1=O)NCc1cc2cnccc2[nH]1` [Compound 26, N-((1H-pyrrolo[3,2-c]pyridin-2-yl)methyl)-2-(5-((dibenzo[b,d]furan-3-ylmethyl)amino)-6-oxo-2-phenylpyrimidin-1(6H)-yl)acetamide], for which the IC50 is < 100 nM.
Regarding `O=C(Cn1c(-c2ccccc2)ncc(NCCCc2ccc(Cl)cc2)c1=O)NCc1cc2cnccc2[nH]1` [Compound 27, N-((1H-pyrrolo[3,2-c]pyridin-2-yl)methyl)-2-(5-((3-(4-chlorophenyl)propyl)amino)-6-oxo-2-phenylpyrimidin-1(6H)-yl)acetamide], the IC50 is < 100 nM.
On to `N#Cc1ccc(CCNc2cnc(-c3ccccc3)n(CC(=O)NCc3cc4cnccc4[nH]3)c2=O)cc1` [Compound 28, N-((1H-pyrrolo[3,2-c]pyridine-2-yl)methyl)-2-(5-((4-cyanophenethyl)amino)-6-oxo-2-phenylpyrimidin-1(6H)-yl)acetamide], for which the IC50 was < 100 nM.
For `O=C(Cn1c(-c2ccccc2)ncc(NC(=O)c2ccc(-c3ccccc3)cc2)c1=O)NCc1cc2cnccc2[nH]1` [Compound 29, N-(1-(2-(((1H-pyrrolo[3,2-c]pyridin-2-yl)methyl)amino)-2-oxoethyl)-6-oxo-2-phenyl-1,6-dihydropyrimidin-5-yl)-[1,1′-biphenyl]-4-carboxamide] the value was < 100 nM.
For `O=C(Cn1c(-c2ccccc2)ncc(-c2nc3c(s2)CCCC3)c1=O)NCc1cc2cnccc2[nH]1` [Compound 30, N-((1H-pyrrolo[3,2-c]pyridin-2-yl)methyl)-2-(6-oxo-2-phenyl-5-(4,5,6,7-tetrahydrobenzo[d]thiazol-2-yl)pyrimidin-1(6H)-yl)acetamide] the value was > 1000 nM; for `O=C(Cn1c(-c2ccccc2)ncc(NC(=O)OCc2ccccc2)c1=O)NCc1cc2cnccc2[nH]1` [Compound 31, benzyl (1-(2-(((1H-pyrrolo[3,2-c]pyridin-2-yl)methyl)amino)-2-oxoethyl)-6-oxo-2-phenyl-1,6-dihydropyrimidin-5-yl)-carbamate], > 1000 nM; for `O=C(Cn1c(-c2ccccc2)ncc(NCc2ccc3oc4ccccc4c3c2)c1=O)NCc1cc2cnccc2[nH]1` [Compound 32, N-((1H-pyrrolo[3,2-c]pyridin-2-yl)methyl)-2-(5-((dibenzo [b,d]furan-2-ylmethyl)amino)-6-oxo-2-phenylpyrimidin-1(6H)-yl)acetamide], < 100 nM.
For `O=C(Cn1c(-c2ccccc2)ncc(NCCNC(=O)c2ccc(Oc3ccccc3)cc2)c1=O)NCc1cc2cnccc2[nH]1` [Compound 33, N-(2-((1-(2-(((1H-pyrrolo[3,2-c]pyridin-2-yl)methyl)amino)-2-oxoethyl)-6-oxo-2-phenyl-1,6-dihydropyrimidin-5-yl)amino)ethyl)-4-phenoxybenzamide] the value was < 100 nM.
As to `O=C(Cn1c(-c2ccccc2)ncc(NCCCc2ccc(OC(F)F)cc2)c1=O)NCc1cc2cnccc2[nH]1` [Compound 34, N-((1H-pyrrolo[3,2-c]pyridin-2-yl)methyl)-2-(5-((3-(4-(difluoromethoxy)phenyl)prop-yl)amino)-6-oxo-2-phenyl-pyrimidin-1(6H)-yl)acetamide], the IC50 was < 100 nM.
Take `O=C(Cn1c(-c2ccccc2)ncc(NCCNC(=O)c2ccc3oc4ccccc4c3c2)c1=O)NCc1cc2cnccc2[nH]1` [Compound 35, N-(2-((1-(2-(((1H-pyrrolo[3,2-c]pyridin-2-yl)methyl)amino)-2-oxoethyl)-6-oxo-2-phenyl-1,6-dihydropyrimidin-5-yl)amino)ethyl)dibenzo[b,d]furan-2-carboxamide]: the IC50 is < 100 nM.
For `O=C(Cn1c(-c2ccccc2)ncc(NCCNC(=O)c2ccc3c(c2)-c2ccccc2C3(F)F)c1=O)NCc1cc2cnccc2[nH]1` [Compound 36, N-(2-((1-(2-(((1H-pyrrolo[3,2-c]pyridin-2-yl)methyl)amino)-2-oxoethyl)-6-oxo-2-phenyl-1,6-dihydropyrimidin-5-yl)-amino)ethyl)-9,9-difluoro-9H-fluorene-3-carboxamide] the value was < 100 nM; for `O=C(Cn1c(-c2ccccc2)ncc(N2CCN(c3ccccc3)CC2)c1=O)NCc1cc2cnccc2[nH]1` [Compound 37, N-((1H-pyrrolo[3,2-c]pyridin-2-yl)methyl)-2-(6-oxo-2-phen-yl-5-(4-phenylpiperazin-1-yl)-pyrimidin-1(6H)-yl)acetamide], 100 to 1000 nM; for `O=C(Cn1c(-c2ccccc2)ncc(NC(=O)Cc2ccc(Oc3ccccc3)cc2)c1=O)NCc1cc2cnccc2[nH]1` [Compound 38, N-((1H-pyrrolo[3,2-c]pyridin-2-yl)methyl)-2-(6-oxo-5-(2-(4-phenoxyphenyl)acetamido)-2-phenylpyrimidin-1(6H)-yl)-acetamide], < 100 nM.
To `O=C(Cn1c(-c2ccccc2)ncc(NCCCc2ccc(OC(F)(F)F)cc2)c1=O)NCc1cc2cnccc2[nH]1` [Compound 39, N-((1H-pyrrolo[3,2-c]pyridin-2-yl)methyl)-2-(6-oxo-2-phen-yl-5-((3-(4-(trifluoromethoxy)-phenyl)propyl)amino)pyrimi-din-1(6H)-yl)acetamide] belongs < 100 nM.
Take `O=C(Cn1c(-c2ccccc2)ncc(NCCCc2ccc3oc4ccccc4c3c2)c1=O)NCc1cc2cnccc2[nH]1` [Compound 40, N-((1H-pyrrolo[3,2-c]pyridin-2-yl)methyl)-2-(5-((3-(dibenzo [b,d]furan-2-yl)propyl)amino)-6-oxo-2-phenylpyrimidin-1(6H)-yl)acetamide]: the IC50 is < 100 nM.
To `O=C(Cn1c(-c2ccccc2)ncc(NCCCc2ccc(C(=O)c3ccccc3)cc2)c1=O)NCc1cc2cnccc2[nH]1` [Compound 41, N-((1H-pyrrolo[3,2-c]pyridin-2-yl)methyl)-2-(5-((3-(4-benzo-ylphenyl)propyl)amino)-6-oxo-2-phenylpyrimidin-1(6H)-yl)-acetamide] belongs < 100 nM; to `CS(=O)(=O)c1ccc(CCCNc2cnc(-c3ccccc3)n(CC(=O)NCc3cc4cnccc4[nH]3)c2=O)cc1` [Compound 42, N-((1H-pyrrolo[3,2-c]pyridin-2-yl)methyl)-2-(5-((3-(4-(methylsulfonyl)phenyl)propyl)amino)-6-oxo-2-phenylpyrimidin-1(6H)-yl)acetamide], < 100 nM.

These data come from US20260184707A1, “PHARMACEUTICAL COMPOUNDS FOR THE TREATMENT OF COMPLEMENT MEDIATED DISORDERS” (ALEXION PHARMACEUTICALS, INC., priority 2022, published 2026).
